Consider 30 compounds from patent publication US20110306671A1, “AMIDE DERIVATIVES OF ETHACRYNIC ACID” (The Regents of the The University of California, priority 2008, published 2011).

The IC50 is the concentration needed to halve the response being measured. In general, EC50 refers to the concentration giving half of the maximal effect.

Data set [1] has as its system Wnt/β-catenin signaling. Kind of data set: TOPflash reporter assay in transfected HEK293 cells. To be noted: for effect on EA-induced inhibition of Wnt/β-catenin signaling: TOPflash + Dvl, 50 μM EA with 1 mM NAC, 100 μM PDTC or 100 μM BHA, 24 hours. It is filed as cell-based, human.
The test system of data set [2] is Primary CLL cells. As to the kind of experiment: Cell apoptosis assay (DiOC6/PI flow cytometry) in primary CLL cells. It is filed as cell-based, human. The conditions noted are these: 3 μM EA with NAC 1 mM or BHA 100 μM, 48 hours. Background: Flow cytometry measures light scatter and fluorescence of single cells or particles in a stream.
The subject of data set [3] is Wnt signaling. Kind of data set: CellSensor LEF/TCF-bla SW480 cell-based assay (Wnt signaling inhibition). More on the design: species or system human. To be noted: for IC50: LEF/TCF-bla SW480 cells, 20 hours. The protocol: To determine the specificity of compounds on Wnt/[…]-catenin pathway inhibition, CellSensor LEF/TCF-bla SW480 cell-based assay (Invitrogen, Carlsbad, Calif.) was used according to the supplier's instructions, but modified for a 96 well format. Cells were plated at 25,000 cells/well in assay medium in 96-well black plates with clear bottom (Corning) the day prior to compound treatment.

Data set [4] has as its system Primary CLL cells. As to the kind of experiment: Cell viability assay (MTT) with primary CLL cells. To be noted: for EC50: read-out: CLL Inhibition EC50, CLL survival, MTT, 48 hours.
Data set [5] relates to Normal PBMC. As to the kind of experiment: Cell viability assay (MTT) with normal peripheral blood mononuclear cells. To be noted: data not shown. It is filed as cell-based, human.
Data set [6] relates to lymphoma and myeloma cells. To be noted: Schmidt et al., 2009; cited from earlier work.

On to `COc1ccc(O)c(C(C)(C)C)c1` [BHA, 3-t-butyl-4-hydroxyanisole], for which the “effect on EA-induced inhibition of Wnt/β-catenin signaling” value in data set [1] is “did not reverse”. Also, the “protection of CLL cells from EA-induced apoptosis” value in data set [2] was “had no effect”.
`CCCCS(=N)(=O)CCC(N)C(=O)O` (stereo not drawn) [BSO, buthionine sulfoximine]: in data set [1] (cell-based system, data not shown), the “effect on Wnt/β-catenin signaling” value is recorded as “did not inhibit”.
`C=C(CC)C(=O)c1ccc(OCC(=O)Nc2ccc(C(N)=O)cc2)c(Cl)c1Cl` [Compound 4] displayed an IC50 in data set [3] of 4.76 µM. The EC50 in data set [4] turned out to be 3.7 µM.
For `C=C(CC)C(=O)c1ccc(OCC(=O)NO)c(Cl)c1Cl` [Compound 5], in that order: 9.89 µM and 4.5 µM.
`C=C(CC)C(=O)c1ccc(OCC(=O)Nc2ccc(C(=O)O)cc2)c(Cl)c1Cl` [Compound 6] came in with a concentration for half-maximal inhibition (IC50) in data set [3] of 5.81 µM. Further, in data set [4], the concentration for a half-maximal effect (EC50) was determined as 5 µM.
The corresponding values for `C=C(CC)C(=O)c1ccc(OCC(=O)NC(CS)C(=O)OCC)c(Cl)c1Cl` (stereo not drawn) [Compound 7] are > 50 µM and 4.8 µM.
For the compound `C=C(CC)C(=O)c1ccc(OCC(=O)Nc2ccc(C#N)cc2)c(Cl)c1Cl` [Compound 8], 6.84 µM corresponded to half-maximal inhibition in data set [3] (IC50). In addition, in data set [4], the EC50 amounted to 7.8 µM.
For `C=C(CC)C(=O)c1ccc(OCC(=O)Nc2ccc(Cl)c(C(=O)O)c2)c(Cl)c1Cl` [Compound 9], in that order: > 50 µM and 15.9 µM.
For the compound `C=C(CC)C(=O)c1ccc(OCC(=O)Nc2cc(Cl)ccc2C(=O)O)c(Cl)c1Cl` [Compound 10], the IC50 in data set [3] is 9.62 µM. The EC50 in data set [4] amounted to 13.8 µM.
The corresponding values for `C=C(CC)C(=O)c1ccc(OCC(=O)Nc2cc(OC)c(OC)cc2C(=O)O)c(Cl)c1Cl` [Compound 11] are > 50 µM and 21.9 µM.
As to `C=C(CC)C(=O)c1ccc(OCC(=O)Nc2ccc3c(c2)C(=O)NC3=O)c(Cl)c1Cl` [Compound 12], half-maximal inhibition in data set [3] (IC50) required 4.88 µM. The EC50 in data set [4] stood at 2.5 µM.
The corresponding values for `C=C(CC)C(=O)c1ccc(OCC(=O)Nc2nc3ccccc3s2)c(Cl)c1Cl` [Compound 13] are 4.86 µM and 1.5 µM.
As to `C=C(CC)C(=O)c1ccc(OCC(=O)NC2CCN(CC(=O)OC)CC2)c(Cl)c1Cl` [Compound 18], the IC50 in data set [3] was > 50 µM. Further, the EC50 in data set [4] was 10.6 µM.
For `C=C(CC)C(=O)c1ccc(OCC(=O)Nc2cccc(C(=O)O)c2)c(Cl)c1Cl` [Compound 19], in that order: 5.85 µM and 20.6 µM.
For `C=C(CC)C(=O)c1ccc(OCC(=O)NCCc2c[nH]c3ccccc23)c(Cl)c1Cl` [Compound 20], in that order: 10.7 µM and 5.9 µM.
For `C=C(CC)C(=O)c1ccc(OCC(=O)Nc2ccc(C(=O)O)cn2)c(Cl)c1Cl` [Compound 21], in that order: > 50 µM and 14.9 µM.
`C=C(CC)C(=O)c1ccc(OCC(=O)Nc2ccc(C(=O)O)c(O)c2)c(Cl)c1Cl` [Compound 22]: in data set [3], the IC50 is > 50 µM. In addition, the EC50 in data set [4] was > 25 µM.
For `C=C(CC)C(=O)c1ccc(OCC(=O)Nc2ccc(C(=O)OC)cc2)c(Cl)c1Cl` [Compound 23], in that order: 11.4 µM and 4.1 µM.
The corresponding values for `C=C(CC)C(=O)c1ccc(OCC(=O)Nc2ccc(Cc3ccc(N4C(=O)C5C6C=CC(C6)C5C4=O)cc3)cc2)c(Cl)c1Cl` (stereo not drawn) [Compound 27] are 2.93 µM and 1.8 µM.
On to `C=C(CC)C(=O)c1ccc(OCC(=O)Nc2ccc(C(C)=O)cc2)c(Cl)c1Cl` [Compound 28], for which the concentration for half-maximal inhibition (IC50) in data set [3] stood at 5.06 µM. Also, in data set [4], the EC50 stood at 3.9 µM.
In the case of `C=C(CC)C(=O)c1ccc(OCC(=O)Nc2ccc3[nH]cnc3c2)c(Cl)c1Cl` [Compound 29], in data set [3], the “inhibition of Wnt signaling (in words)” value is recorded as “low micromolar concentrations” and the midpoint of inhibition, the IC50, lay at 3.62 µM. Besides, in data set [4], the “decrease of CLL survival (in words)” value is given as “low micromolar concentrations” and the EC50 worked out at 3.2 µM.
In the case of `C=C(CC)C(=O)c1ccc(OCC(=O)Nc2nc(C(=NOC)C(=O)O)cs2)c(Cl)c1Cl` [Compound 30], the IC50 in data set [3] is > 50 µM. Besides, the concentration giving a half-maximal response (EC50) in data set [4] was > 25 µM.
In the case of `C=C(CC)C(=O)c1ccc(OCC(=O)Nc2ccc(C(=O)NC(CCC(=O)OCC)C(=O)OCC)cc2)c(Cl)c1Cl` (stereo not drawn) [Compound 31], in data set [3], the “inhibition of Wnt signaling (in words)” value was “low micromolar concentrations” and it took 2.61 µM to reach half-maximal inhibition (IC50). In data set [4], the “decrease of CLL survival (in words)” value is “low micromolar concentrations” and the EC50 came out at 2.1 µM.
In data set [3], `C=C(CC)C(=O)c1ccc(OCC(=O)Nc2ccc3c(c2)C(=O)c2ccccc2C3=O)c(Cl)c1Cl` [Compound 32] came in with an IC50 of 2.97 µM. Moreover, the EC50 in data set [4] was 2.1 µM.
Take `C=C(CC)C(=O)c1ccc(OCC(=O)NCCCN2CCCC2=O)c(Cl)c1Cl` [Compound 33]: the IC50 in data set [3] is > 50 µM. Moreover, the EC50 in data set [4] was determined as 13.8 µM.
The corresponding values for `C=C(CC)C(=O)c1ccc(OCC(=O)Nc2ccc(C=CC(=O)OCC)cc2)c(Cl)c1Cl` [Compound 38] are 3.79 µM and 1.7 µM.
Consider `CCC(C)C(=O)c1ccc(OCC(=O)O)c(Cl)c1Cl` (stereo not drawn) [Compound 42], for which the “inhibition of Wnt signaling (in words)” value in data set [3] was “completely abrogated”. In addition, the IC50 in data set [3] (Homo sapiens) is > 50 µM. In data set [4], the “decrease of CLL survival (in words)” value is recorded as “completely abrogated” and the EC50 was > 25 µM.
`C=C(CC)C(=O)c1ccc(OC)c(Cl)c1Cl` [Compound 43]: in data set [5], the “toxicity to peripheral blood mononuclear cells (PBMC)” value is on record as “highly toxic”.
Take `CC(=O)N[C@@H](CS)C(=O)O` [NAC, N-acetyl-L-cysteine]: the “effect on EA-induced inhibition of Wnt/β-catenin signaling” value in data set [1] is “significantly prevented”. The “protection of CLL cells from EA-induced apoptosis” value in data set [2] is recorded as “significantly protected”.
For the compound `Cc1cc(C2CCCCC2)n(O)c(=O)c1` [cic, ciclopiroxolamine], in data set [6], the induction of apoptosis result is “significant induction of apoptosis”.
